Experimental data published in patent publication US20030186943A1, “Substituted gamma-phenyl-delta-lactams and uses related thereto” (Inflazyme Pharmaceuticals Ltd., priority 1998, published 2003).
Like-named read-outs stand apart in the source and are kept apart here.

Assays:
[1] = system: primary human neutrophils; assay: Generation of reactive oxygen species by fMLP-activated neutrophils (luminol-enhanced chemiluminescence); type: cell-based; details: Neutrophil
Procedure, shortened: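 Fresh primary human neutrophils (5×10^6 cells/mL) preincubated 30 min at 37° C with compound in Ca^2+-containing HBSS pH 7.4, then stimulated with 1 μM fMLP in presence of 1 μM luminol. Chemiluminescence integrated over 30 min; IC50 from non-linear regression versus 0.25% DMSO control.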

[2] = system: High Affinity Rolipram Binding Site of PDE4 in Mouse Brain; assay: Displacement of [3H]-rolipram from its high affinity binding site (HARBS); details: for PDE4:HARBS: ratio of IC50 for PDE4 catalytic activity to concentration displacing 50% of rolipram from HARBS
[3] = system: IFN-gamma production in concanavalin A stimulated primary human CD4+ T-cells; assay: IFN-gamma production (Th1 profile) in concanavalin A stimulated primary human CD4+ T-cells; type: cell-based; details: T-cell, 10 μg/mL Concanavalin A, 48 hours, X marks this range, read-out: INF-GAMMA IC50 RANGE (μM) 0.2-2.0
Text: (§1) The assay on the primary human T-cells involves their activation by concanavalin A (conA); (Sigma, Catalogue No. C 5275), followed by ELISA detection for cytokines for either profile. In the case of Th1-profiles, IL-2 and INF-γ are used as benchmarks while IL-10 is the indicator for a Th2-profile. Biologically, these indicators are useful in that IL-2 is the major T-cell mitogen while IL-10 represents a powerful yet selective immunosuppressive agent.
(§2) Approximately 60 cc of whole human blood was collected into ACD anti-coagulant vacutainer tubes. 15 mL Ficoll Paque 1077 was aliquoted into 6 sterile 50 mL conical tubes. 10 mL of blood was slowly layered on top of the Ficoll Paque by holding the tube upright and resting the pipette tip at the inside edge of the tube and allowing the blood to slowly run down the side of the tube. Tubes were spun at 1700 rpm for 30 minutes at room temperature. The plasma layer above the leukocyte band was aspirated off and a pasteur pipette was used to lift off the leukocyte band and transfer it to a sterile 50 mL conical tube. Cells from each leukocyte gradiant tube were transferred to a separate 50 mL conical tube. Sterile PBS pH 7.4 was added to each 50 mL conical tube containing cells from leukocyte band to a volume of 50 mL. Tubes were spun at 1100 rpm for 10 minutes. Supernatant was aspirated off and the cells were resuspended in 50 mL PBS pH 7.4. Tubes were re-centrifuged at 1100 rpm for 10 minutes. Supernatant was aspirated off and the cells were resuspended in appropriate medium at a density of 5×10^7 cells/mL or 2×10^6 cells/mL.
(§3) CD 4+T-cell Preparation: Cells from Leukocyte preparation were resuspended in sterile PBS pH 7.4 supplemented with 2-6% Fetal Bovine Serum (FBS) at a density of 5×10^7 cells/mL. Cells were then ready for isolation.
(§4) 100 μL of antibody cocktail (Stem Cell Technologies, Catalogue No. 14062) was added for each mL of cells and mixed well. Cells+Ab cocktail was incubated on ice for 30 minutes. After 30 minute incubation, 60 μL of magnetic colloid was added for each mL of cells, and mixed well. Cells+Ab cocktail+magnetic colloid were incubated on ice for 30 minutes. After a final 30 minute incubation cells were ready for magnetic cell separation.
(§5) Sample was loaded into the top of a column. The stopcock was turned to allow the flow of media down through the column, and the media was collected into a collection tube. PBS supplemented with 2-6% FBS was added to the column until three column volumes had been collected (not including the volume of the start sample). Cells were washed, counted, and resuspended in RPMI 1640 with 10% FBS+2 mM L-glutamine at a density of 1×10^6 cells/mL.
(§6) CD4+ T-cells were isolated as described above. Cells were suspended in RPMI 1640 media (Stem Cell Technologies Inc.; Catalogue No. 36750) with 10% FBS+2 mM L-glutamine at a density of 1×10^6 cells/mL. Cells were maintained on ice as test compounds were prepared. Test compounds were prepared in a sterile 96-well assay plate at 50×the final desired test concentration, all wells contained an equal amount of dimethylsulfoxide vehicle. 500 μL of CD4^+ T-cells were added to each well of 24-well assay plate. 10 μL of each test compound working solution was added to the appropriate wells; two wells were left as stimulated and non-stimulated controls. 10 μL of concanavalin A (50×the final concentration) at 10 μg/mL was added to each well with the exception of the non-stimulated control wells. Cells were incubated at 37° C. for 48 hours. Conditioned media is then assessed by ELISA for the quantity of IL-2, […], TNFα and IL-10 present.
(§7) Tables 5A, 5B and 5C represent a synopsis of data across individuals with respects to the potency of compounds of the invention in their ability to inhibit cytokines that are likely to promote or depress a Th1 or Th2 response. […]

[4] = system: IL-2 production in concanavalin A stimulated primary human CD4+ T-cells; assay: IL-2 production (Th1 profile) in concanavalin A stimulated primary human CD4+ T-cells; type: cell-based; details: for IC50: Homo sapiens, T-cell, 10 μg/mL Concanavalin A, 48 hours, X marks this range; for Th1 versus Th2 cytokine profile: conA stimulated CD4+ selected cells
Text: as §1, §2, §3, §4, §5, §6, §7

[5] = read-out: IC50 RANGE (μM) <1, ROS production, X marks this range
[6] = ROS production, X marks this range, read-out: IC50 RANGE (μM) 1-10
[7] = read-out: IL-2 IC50 RANGE (μM) 0.02-0.2
[8] = read-out: IL-2 IC50 RANGE (μM) 0.2-2.0

Row | Compound | IC50 [1, 5] | PDE4:HARBS [2] | IC50 [1, 6] | IC50 [3] | IC50 [4, 7] | Th1 versus Th2 cytokine profile [4] | IC50 [4, 8] | IC50 ([4]; read-out: IL-2 IC50 RANGE (μM) 2.0-20) | ratio of IC50's for PDE4catalytic to PDE4HARBS [2] | IC50 ([1]; ROS production, X marks this range, read-out: IC50 RANGE (μM) 10-100)
1 | COc1ccc([C@@H]2CCC(=O)OC2)cc1OC1CCCC1 [Compound 41] | < 1 µM | >1 |  |  |  |  |  |  |  | 
2 | COc1cc(C[C@@H]2C[C@@H](c3ccc(OC)c(OC)c3)COC2=O)ccc1O [Compound 30] |  | <1 | 1 to 10 µM | 0.2 to 2 µM | 0.02 to 0.2 µM | selective inhibition of a Th1 profile |  |  |  | 
3 | COc1ccc([C@H]2CNC(=O)C(Cc3ccc(OCc4ccccc4)c(OC)c3)C2)cc1OC (stereo partly shown) [Compound 54] |  | >1 | 1 to 10 µM | 0.2 to 2 µM | 0.02 to 0.2 µM | selective inhibition of a Th1 profile |  |  |  | 
4 | COc1cc(CC2C[C@@H](c3ccc(OC)c(OC)c3)CNC2=O)ccc1O (stereo partly shown) [Compound 55] |  | >1 | 1 to 10 µM | 0.2 to 2 µM |  |  | 0.2 to 2 µM |  |  | 
5 | COc1ccc(C2CNC(=O)C2)cc1OC1CCCC1 (stereo not shown) [Rolipram, reference compound] |  |  |  | 0.2 to 2 µM |  |  |  | 2 to 20 µM |  | 
6 | COc1cc(CC2C[C@@H](c3ccc(OC)c(OC4CCCC4)c3)COC2=O)ccc1O (stereo partly shown) [Compound 43] | < 1 µM | >1 |  | 0.2 to 2 µM |  |  | 0.2 to 2 µM |  | 1.04 | 
7 | COc1cc(CC2C[C@@H](c3ccc(OC)c(OC4CCCC4)c3)CNC2=O)ccc1O (stereo partly shown) [Compound 62] |  | >1 |  | 0.2 to 2 µM |  |  | 0.2 to 2 µM |  |  | 10 to 100 µM
8 | COc1cc(C[C@@H]2CC(c3ccc(OC)c(OC)c3)COC2=O)ccc1O (mixture of isomers) [Compound 12] | < 1 µM |  |  |  |  |  |  |  |  | 
